Active and inactive are the calls of the source.
Legend:
Bcl-2-like protein 10 = target: T1, Bcl-2-like protein 10 (Homo sapiens, UniProt Q9HD36); test: Concentration-response of Bcl-B inhibitors by biochemical FP with TR3 (AID 1243); assay type: functional
T1 sequence (Q9HD36 whole entry): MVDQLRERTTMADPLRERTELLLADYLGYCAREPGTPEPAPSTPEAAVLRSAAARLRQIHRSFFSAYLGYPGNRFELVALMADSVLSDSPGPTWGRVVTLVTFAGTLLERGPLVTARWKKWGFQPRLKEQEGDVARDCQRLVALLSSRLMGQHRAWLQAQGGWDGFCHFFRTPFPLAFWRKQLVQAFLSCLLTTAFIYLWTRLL

HeLa = test: Cytotoxicity counterscreen assay for transcriptional activators of heat shock protein 70 (Hsp70). [Related pubchem assays: 1203, 1252 ]; assay type: functional; conditions: Homo sapiens
NS3 = NS3 (Hepatitis C virus, UniProt A3EZJ3); test: PubChem AID 2173; parameters: species or system Hepacivirus hominis
NS3, sequence (A3EZJ3 whole entry): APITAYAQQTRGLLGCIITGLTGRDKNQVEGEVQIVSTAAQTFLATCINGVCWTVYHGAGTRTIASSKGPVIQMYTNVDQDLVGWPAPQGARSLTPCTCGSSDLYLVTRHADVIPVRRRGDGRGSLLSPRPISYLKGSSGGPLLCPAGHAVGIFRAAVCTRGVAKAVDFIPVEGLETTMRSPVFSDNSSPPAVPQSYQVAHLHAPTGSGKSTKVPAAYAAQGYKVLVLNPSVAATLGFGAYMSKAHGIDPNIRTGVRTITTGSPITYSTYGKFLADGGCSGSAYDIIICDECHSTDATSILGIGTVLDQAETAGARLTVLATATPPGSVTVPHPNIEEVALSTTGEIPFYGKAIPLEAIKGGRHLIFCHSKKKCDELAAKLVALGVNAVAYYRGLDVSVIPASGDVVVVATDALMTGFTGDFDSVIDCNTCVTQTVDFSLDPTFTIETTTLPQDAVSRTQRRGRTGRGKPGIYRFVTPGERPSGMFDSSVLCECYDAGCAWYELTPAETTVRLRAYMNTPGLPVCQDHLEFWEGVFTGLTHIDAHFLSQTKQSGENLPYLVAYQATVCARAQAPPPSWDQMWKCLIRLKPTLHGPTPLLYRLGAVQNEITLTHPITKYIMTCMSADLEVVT

[1] = M. tuberculosis growth inhibition, HTS (AID 449762); assay type: functional
[2] = target: T2, Heat shock factor protein 1 (Mus musculus, UniProt P38532); test: enhancement of HSF1-driven luciferase signal – cell-based, NIH3T3, luminescence, dose retest, confirmation (AID 435004); assay type: functional;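 further: stress induced by proteasome inhibitor MG132 added 30 min after compound; luciferase reporter driven by HSF1 response element in NIH3T3 cells; actives raise luminescence as potentiators of the MG132 stress response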
T2 sequence (P38532 whole entry): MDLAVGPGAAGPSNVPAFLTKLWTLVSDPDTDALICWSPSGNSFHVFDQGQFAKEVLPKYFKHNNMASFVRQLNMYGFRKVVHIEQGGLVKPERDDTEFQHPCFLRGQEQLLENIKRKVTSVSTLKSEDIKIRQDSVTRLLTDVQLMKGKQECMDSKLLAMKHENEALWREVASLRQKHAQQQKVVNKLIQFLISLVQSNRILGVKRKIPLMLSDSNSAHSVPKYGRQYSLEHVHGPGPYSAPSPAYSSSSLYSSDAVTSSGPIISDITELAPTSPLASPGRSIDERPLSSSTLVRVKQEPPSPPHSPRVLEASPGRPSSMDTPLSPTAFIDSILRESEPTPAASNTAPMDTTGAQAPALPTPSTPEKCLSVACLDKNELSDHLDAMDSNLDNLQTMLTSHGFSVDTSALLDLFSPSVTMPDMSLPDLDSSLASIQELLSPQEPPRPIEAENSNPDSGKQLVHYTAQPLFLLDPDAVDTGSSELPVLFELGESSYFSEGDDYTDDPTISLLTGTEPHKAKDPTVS

[3] = luciferase reporter signal suppression in cells – H4 neuroglioma cells, luminescence, dose response (AID 1990); assay type: functional, cell-based
[4] = DRD fibroblast viability loss – cell-based, non-viral oncogenic, luminescence, dose response (AID 1934); assay type: functional; conditions: Homo sapiens
[5] = Luminescence Cell-Based Dose Response HTS to Identify Inhibitors of 5'UTR Stem-Loop Driven Prion Protein mRNA Translation in H4 Neuroglioblastoma Cells. [Related pubchem assays: 1827 (Project Summary), 1813 (Primary HTS)]; assay type: functional
Estrogen receptor = target: T3, Estrogen receptor (Homo sapiens, UniProt P03372);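 further: potency for inhibiting coactivator peptide recruitment to the receptor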
T3 sequence (P03372 whole entry): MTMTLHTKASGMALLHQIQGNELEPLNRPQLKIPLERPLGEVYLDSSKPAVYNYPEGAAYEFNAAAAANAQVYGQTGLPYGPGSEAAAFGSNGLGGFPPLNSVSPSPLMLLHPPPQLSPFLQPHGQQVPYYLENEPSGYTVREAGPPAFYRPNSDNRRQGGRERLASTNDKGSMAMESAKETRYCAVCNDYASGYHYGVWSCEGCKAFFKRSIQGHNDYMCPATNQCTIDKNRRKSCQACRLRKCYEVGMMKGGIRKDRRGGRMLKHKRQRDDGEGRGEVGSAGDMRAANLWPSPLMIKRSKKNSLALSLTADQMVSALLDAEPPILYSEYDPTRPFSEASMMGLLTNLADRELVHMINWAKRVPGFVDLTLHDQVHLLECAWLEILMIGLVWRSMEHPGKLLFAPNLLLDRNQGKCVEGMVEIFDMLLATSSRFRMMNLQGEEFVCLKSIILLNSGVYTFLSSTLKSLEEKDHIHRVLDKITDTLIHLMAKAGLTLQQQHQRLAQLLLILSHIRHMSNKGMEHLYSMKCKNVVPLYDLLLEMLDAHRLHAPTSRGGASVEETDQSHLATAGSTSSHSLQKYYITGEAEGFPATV

BJ [6] = test: BJ-TERT-LT-ST fibroblast viability loss – cell-based, RAS-independent, luminescence, dose response (AID 1935); assay type: functional; conditions: Homo sapiens;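 further: BJ fibroblasts immortalized with TERT plus LT and ST oncogenes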
[7] = target: Mothers against decapentaplegic homolog 3 (Homo sapiens, UniProt P84022); test: inhibitors of SMAD-driven TGF-beta signaling – dose response (AID 715); assay type: functional
Mothers against decapentaplegic homolog 3, sequence (P84022 whole entry): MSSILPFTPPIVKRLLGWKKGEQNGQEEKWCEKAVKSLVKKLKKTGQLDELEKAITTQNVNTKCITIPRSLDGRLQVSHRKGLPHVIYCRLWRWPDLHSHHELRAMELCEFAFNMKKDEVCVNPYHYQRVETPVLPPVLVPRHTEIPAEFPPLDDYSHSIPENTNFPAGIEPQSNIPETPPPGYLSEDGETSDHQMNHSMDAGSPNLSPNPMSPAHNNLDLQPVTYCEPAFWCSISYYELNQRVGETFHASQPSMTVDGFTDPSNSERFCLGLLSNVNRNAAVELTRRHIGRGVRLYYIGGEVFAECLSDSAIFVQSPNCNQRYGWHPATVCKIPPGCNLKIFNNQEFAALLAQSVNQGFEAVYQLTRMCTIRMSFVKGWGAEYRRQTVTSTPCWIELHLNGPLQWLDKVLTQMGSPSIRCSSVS

Streptokinase A = target: T4, Streptokinase A (Streptococcus pyogenes serotype M1, UniProt P10520); test: viability-normalized secreted streptokinase activity reduction – plasminogen activation absorbance, OD405, dose response (AID 1914); assay type: functional, Streptococcus pyogenes M1 GAS;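 further: secreted streptokinase activity via plasminogen activation per viability signal from cell pellet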
T4 sequence (P10520 whole entry): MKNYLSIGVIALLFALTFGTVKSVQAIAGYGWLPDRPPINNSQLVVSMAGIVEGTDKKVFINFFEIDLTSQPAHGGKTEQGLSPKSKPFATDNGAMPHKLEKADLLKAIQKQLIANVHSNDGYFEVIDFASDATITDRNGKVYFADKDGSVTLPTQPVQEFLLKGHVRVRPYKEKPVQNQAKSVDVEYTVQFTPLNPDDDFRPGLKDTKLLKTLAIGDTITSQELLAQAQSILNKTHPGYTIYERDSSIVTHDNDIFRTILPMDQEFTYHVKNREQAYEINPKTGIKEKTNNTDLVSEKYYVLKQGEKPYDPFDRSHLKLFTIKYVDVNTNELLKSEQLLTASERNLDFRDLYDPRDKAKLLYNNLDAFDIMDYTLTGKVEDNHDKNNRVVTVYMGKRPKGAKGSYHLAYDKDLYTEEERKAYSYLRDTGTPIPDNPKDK

BJ [8] = test: growth inhibition of engineered Ras-driven BJ cells – cell-based, alamar blue fluorescence, cherrypicked samples, dose response (AID 2631); assay type: functional; conditions: Homo sapiens;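 further: confirmatory dose-response assay in RAS-dependent BJ fibroblasts engineered with TERT, LT and ST, with cytotoxicity read by fluorescence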
[9] = alpha-synuclein stem-loop luciferase translation blockers – H4 neuroglioma cells, luminescence, confirmation (AID 1988); assay type: functional, cell-based
[10] = test system: Streptococcus sp. 'group A'; test: Streptococcus pyogenes SK(-)GAS viability under kanamycin – luminescence, BacTiterGlo, confirmation, counter-screen for streptokinase expression inhibitor project, dose response (AID 1900); assay type: functional, organism-based
Streptococcus = test: GAS UMAA2166 growth inhibition – luminescence, BacTiterGlo, counter-screen for streptokinase expression inhibitor project, dose response (AID 1915); assay type: functional, organism-based;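 further: potency for reduction of bacterial viability or growth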
BJ [11] = test: cells; assay type: functional, cell-based; conditions: Homo sapiens
Aminopeptidase N = target: T5, Aminopeptidase N (Plasmodium falciparum FcB1/Columbia, UniProt O96935); test: malaria alanyl aminopeptidase activity blockers – biochemical, fluorogenic H-Leu-NHMec substrate, 1536-well (AID 1445); parameters: species or system Plasmodium falciparum 3D7, 3D7
T5 sequence (O96935 whole entry): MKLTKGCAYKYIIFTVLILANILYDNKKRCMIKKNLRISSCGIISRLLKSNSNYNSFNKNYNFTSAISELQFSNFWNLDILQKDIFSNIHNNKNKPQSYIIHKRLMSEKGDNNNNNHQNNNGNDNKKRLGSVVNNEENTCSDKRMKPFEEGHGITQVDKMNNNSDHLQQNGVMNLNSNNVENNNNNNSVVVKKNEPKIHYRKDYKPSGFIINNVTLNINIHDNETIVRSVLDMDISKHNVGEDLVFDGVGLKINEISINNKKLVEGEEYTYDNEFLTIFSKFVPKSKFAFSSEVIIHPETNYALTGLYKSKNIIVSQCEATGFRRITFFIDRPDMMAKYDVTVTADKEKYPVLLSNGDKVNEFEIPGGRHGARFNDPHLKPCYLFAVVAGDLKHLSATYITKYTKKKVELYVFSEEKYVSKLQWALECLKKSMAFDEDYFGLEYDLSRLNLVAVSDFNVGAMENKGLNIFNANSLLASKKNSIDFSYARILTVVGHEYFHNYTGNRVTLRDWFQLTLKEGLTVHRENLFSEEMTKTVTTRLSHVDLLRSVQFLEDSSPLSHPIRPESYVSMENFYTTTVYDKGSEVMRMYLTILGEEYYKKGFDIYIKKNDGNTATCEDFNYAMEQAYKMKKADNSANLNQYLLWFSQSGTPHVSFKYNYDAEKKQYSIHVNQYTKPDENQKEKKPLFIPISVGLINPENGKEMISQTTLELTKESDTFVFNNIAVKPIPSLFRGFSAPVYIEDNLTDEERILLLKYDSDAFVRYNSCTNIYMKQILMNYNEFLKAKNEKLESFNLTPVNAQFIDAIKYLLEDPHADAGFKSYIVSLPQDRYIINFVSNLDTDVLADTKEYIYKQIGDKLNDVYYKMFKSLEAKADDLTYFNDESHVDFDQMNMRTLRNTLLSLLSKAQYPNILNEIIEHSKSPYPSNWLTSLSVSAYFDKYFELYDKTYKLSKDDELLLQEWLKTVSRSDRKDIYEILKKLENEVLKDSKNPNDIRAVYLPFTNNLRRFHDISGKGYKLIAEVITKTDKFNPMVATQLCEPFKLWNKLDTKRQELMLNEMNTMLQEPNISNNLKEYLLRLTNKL

Phospholipase A2 = Phospholipase A2 (Homo sapiens, UniProt P04054); assay type: functional;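 further: confirmatory dose-response counterscreen on phospholipase A2, testing hits that came from an ultra-high-throughput screen for ATG4B inhibitors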
Phospholipase A2, sequence (P04054 whole entry): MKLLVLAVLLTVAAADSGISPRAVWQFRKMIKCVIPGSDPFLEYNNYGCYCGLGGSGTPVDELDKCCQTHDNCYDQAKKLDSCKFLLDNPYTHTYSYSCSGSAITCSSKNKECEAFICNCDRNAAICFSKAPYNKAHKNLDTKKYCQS

[12] = blockers of CRF-binding protein–CRF-R2 complex – cell-based, uHTS hits, 384-well, dose response (AID 651639); assay type: functional, Homo sapiens; conditions: read-out: IC50_Mean
Cysteine protease ATG4B = target: T6, Cysteine protease ATG4B (Homo sapiens, UniProt Q9Y4P1); assay type: functional;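 further: Fluorescence-based dose-response confirmation assay measuring inhibition of ATG4B activity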
T6 sequence (Q9Y4P1 whole entry): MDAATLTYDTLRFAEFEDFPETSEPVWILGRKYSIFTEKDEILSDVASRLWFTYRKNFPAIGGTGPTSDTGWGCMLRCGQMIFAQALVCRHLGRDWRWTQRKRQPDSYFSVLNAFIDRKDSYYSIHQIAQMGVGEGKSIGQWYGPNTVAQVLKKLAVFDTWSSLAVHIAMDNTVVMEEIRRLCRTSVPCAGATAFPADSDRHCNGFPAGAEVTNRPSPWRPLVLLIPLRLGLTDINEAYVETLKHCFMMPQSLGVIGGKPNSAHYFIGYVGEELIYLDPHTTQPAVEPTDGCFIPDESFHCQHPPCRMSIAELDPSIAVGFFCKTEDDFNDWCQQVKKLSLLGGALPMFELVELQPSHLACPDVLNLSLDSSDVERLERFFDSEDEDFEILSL

[13] = CCR5-tropic HIV-1 fusion blockers – cell-based, CCR5-tropic Env, dose response (AID 2279); assay type: functional
[14] = target: T7, Corticotropin-releasing factor receptor 2/Corticotropin-releasing factor-binding protein (Homo sapiens, UniProt P24387+Q13324); test: activators of CRF receptor 2 with binding protein – uHTS hits, confirmation (AID 602473); assay type: functional; conditions: read-out: EC50_Mean
T7 sequence (Q13324 whole entry): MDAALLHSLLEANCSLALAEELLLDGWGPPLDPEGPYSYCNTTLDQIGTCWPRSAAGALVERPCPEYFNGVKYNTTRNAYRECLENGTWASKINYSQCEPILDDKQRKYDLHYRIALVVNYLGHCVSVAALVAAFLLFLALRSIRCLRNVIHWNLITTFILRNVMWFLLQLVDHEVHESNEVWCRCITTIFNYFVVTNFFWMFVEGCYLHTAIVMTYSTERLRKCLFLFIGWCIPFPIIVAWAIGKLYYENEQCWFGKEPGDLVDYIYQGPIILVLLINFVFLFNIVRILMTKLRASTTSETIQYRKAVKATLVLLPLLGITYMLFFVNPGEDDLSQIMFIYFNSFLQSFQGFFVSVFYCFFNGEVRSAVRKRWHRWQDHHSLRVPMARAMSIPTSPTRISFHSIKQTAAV
T7 sequence (P24387 whole entry): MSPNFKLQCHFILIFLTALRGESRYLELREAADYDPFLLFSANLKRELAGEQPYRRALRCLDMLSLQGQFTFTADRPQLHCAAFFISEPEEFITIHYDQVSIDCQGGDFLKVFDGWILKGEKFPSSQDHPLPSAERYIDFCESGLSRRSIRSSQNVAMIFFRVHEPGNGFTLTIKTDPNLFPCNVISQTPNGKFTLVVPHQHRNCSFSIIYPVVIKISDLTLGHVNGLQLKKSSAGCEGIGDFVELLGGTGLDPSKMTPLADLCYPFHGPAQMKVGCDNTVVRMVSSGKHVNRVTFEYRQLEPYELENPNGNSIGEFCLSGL

[15] = target: T7, Corticotropin-releasing factor receptor 2/Corticotropin-releasing factor-binding protein; test: Dose Response confirmation of uHTS hits for small molecule antagonists of the CRF-binding protein and CRF-R2 receptor complex.; assay type: functional; conditions: read-out: IC50_Mean
[16] = target: Neuropeptide Y receptor type 2 (Homo sapiens, UniProt P49146); test: IC50 for human NPY-Y2 blockade – cell-based, counter-screen for NPY-Y1 antagonist project, dose response (AID 1278); assay type: functional
Neuropeptide Y receptor type 2, sequence (P49146 whole entry): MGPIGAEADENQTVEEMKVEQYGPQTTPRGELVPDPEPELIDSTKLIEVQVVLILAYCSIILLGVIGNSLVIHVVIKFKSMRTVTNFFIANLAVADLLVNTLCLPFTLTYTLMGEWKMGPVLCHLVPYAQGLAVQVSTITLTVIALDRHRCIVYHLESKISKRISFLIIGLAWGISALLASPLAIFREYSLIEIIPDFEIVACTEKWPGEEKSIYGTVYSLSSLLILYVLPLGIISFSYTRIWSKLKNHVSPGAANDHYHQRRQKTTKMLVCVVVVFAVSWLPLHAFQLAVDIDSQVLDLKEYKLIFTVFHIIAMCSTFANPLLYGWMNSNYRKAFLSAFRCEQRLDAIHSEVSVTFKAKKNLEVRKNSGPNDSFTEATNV

[17] = target: Neuropeptide Y receptor type 1 (Homo sapiens, UniProt P25929); test: IC50 of human NPY-Y1 blockers – cell-based, dose response (AID 1277); assay type: functional
Neuropeptide Y receptor type 1, sequence (P25929 whole entry): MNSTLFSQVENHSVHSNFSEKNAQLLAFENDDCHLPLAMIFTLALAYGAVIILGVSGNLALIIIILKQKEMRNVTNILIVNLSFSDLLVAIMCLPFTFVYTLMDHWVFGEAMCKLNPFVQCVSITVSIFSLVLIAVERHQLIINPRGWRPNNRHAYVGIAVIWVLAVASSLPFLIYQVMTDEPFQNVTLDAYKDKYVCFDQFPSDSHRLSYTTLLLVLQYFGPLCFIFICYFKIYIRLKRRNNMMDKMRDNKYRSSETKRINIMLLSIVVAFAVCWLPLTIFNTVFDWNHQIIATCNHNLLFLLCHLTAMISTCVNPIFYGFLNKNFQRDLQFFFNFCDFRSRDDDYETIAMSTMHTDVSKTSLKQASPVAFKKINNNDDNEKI
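Wherever CC50 is given: cells exposed to compound for 16 hours before readout.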

## O=C1C=CC(=O)C(/C(=C/NCc2ccccc2)[N+](=O)[O-])=C1
Bcl-2-like protein 10
  EC50: 5.7 µM (active)

## Cn1c(CCN2CCOCC2)nc2cc(NC(=O)COc3ccc(Cl)cc3)ccc21
HeLa
  CC50: > 99 µM (not active)

## COc1ccccc1/C=C/C1=NC(=C\C=C/c2ccccc2)/C(=O)O1
NS3
  IC50: 24.1 µM (not active)
[1]
  IC50: > 100 µM (active)
[2]
  EC50: > 260 µM (inactive)

## CCOC(=O)c1c2c(n(C)c1COC)C(=O)C(=O)c1ccc(Br)cc1-2
[3]
  EC50: 4.87 µM (active)
[4]
  EC50: 2.36 µM (active)
[5]
  EC50: 5.16 µM (active)
Estrogen receptor
  IC50: 8.87 µM (active)
BJ [6]
  EC50: 1.08 µM (inconclusive)
[7]
  IC50: 0.771 µM (active)
Streptokinase A
  EC50: > 150 µM (not active)
BJ [8]
  EC50: 0.562 µM (active)
[9]
  EC50: 1.44 µM (active)
[10]
  EC50: 1.13 µM (active)
Streptococcus
  EC50: 24.3 µM (active)
BJ [11]
  EC50: 3.08 µM (active)

## Cc1ccc(N2C(=O)/C(=C\Nc3ccccc3-c3nnc(S)nc3O)c3ccccc3C2=O)c(C)c1
Aminopeptidase N
  IC50: 27.4 µM (active)
Phospholipase A2
  IC50: 10 µM (active)
[12]
  IC50: > 20 µM (inactive)
Cysteine protease ATG4B
  IC50: 14 µM (active)
[13]
  IC50: 39.9 µM (active)
[14]
  EC50: > 53 µM (inactive)
[15]
  IC50: 3.83 µM (active)

## Cc1nn(-c2ccccc2)c2sc(C(=O)O)cc12
[16]
  IC50: > 35 µM (not active)
[17]
  IC50: > 35 µM (not active)

Source: ChEMBL document CHEMBL1201862, “PubChem BioAssay data set” (2004)
